In brackets after ≈: the same amount, converted by molar mass.
Experiments:
Assay type in all cases: cell-based
[1] = system: Neisseria sp.; test: MIC, ATCC laboratory strains (NCCLS guidelines); conditions: n=3, in µg/mL
Protocol: (§1) The activity of Compound I was tested against laboratory strains of different species of bacteria using NCCLS antimicrobial susceptibility testing guidelines. […] Including MRSA and Enterococcus sp. Including VRE (Table. 2).

[2] = system: Enterococcus sp. (incl. VRE); test: MIC, ATCC laboratory strains (NCCLS guidelines)
Protocol: as §1

[3] = system: Bacillus sp.; test: MIC, ATCC laboratory strains (NCCLS guidelines); conditions: n=2
Protocol: as §1

[4] = system: Micrococcus sp.; test: MIC, ATCC laboratory strains (NCCLS guidelines)
Protocol: as §1

[5] = system: Enterobacteriaceae.; test: MIC, ATCC laboratory strains (NCCLS guidelines); conditions: n=10
Protocol: as §1

[6] = system: Streptococcus sp.; test: MIC, ATCC laboratory strains (NCCLS guidelines); conditions: n=5, in µg/mL
Protocol: as §1

[7] = system: Helicobacter sp.; test: MIC, ATCC laboratory strains (NCCLS guidelines); conditions: n=1
Protocol: as §1

[8] = system: Anaerobic Gram positive cocci; test: MIC, ATCC laboratory strains (NCCLS guidelines); conditions: n=4
Protocol: as §1

[9] = system: Bacteroides sp.; test: MIC, ATCC laboratory strains (NCCLS guidelines); conditions: n=5
Protocol: as §1

[10] = system: Citrobacter sp.; test: MIC, ATCC laboratory strains (NCCLS guidelines); conditions: n=2
Protocol: as §1

[11] = system: Clostridium sp.; test: MIC, ATCC laboratory strains (NCCLS guidelines)
Protocol: as §1

[12] = system: Fusobacterium sp.; test: MIC, ATCC laboratory strains (NCCLS guidelines); conditions: n=1
Protocol: as §1

[13] = system: Staphylococcus sp. (incl. MRSA); test: MIC, ATCC laboratory strains (NCCLS guidelines)
Protocol: as §1

[14] = system: Pseudomonas aeruginosa; test: microbe, parasite or virus in culture; conditions: clinical gastrointestinal isolates, n=10
[15] = system: Streptococcus sp.; test: microbe, parasite or virus in culture; conditions: clinical gastrointestinal isolates, n=9
[16] = system: Eschericia coli; test: organism not typed; conditions: clinical gastrointestinal isolates, n=10
[17] = system: Proteus mirabilis; test: microbe, parasite or virus in culture; conditions: clinical gastrointestinal isolates, n=10
[18] = system: Bacteroides fragilis group; test: microbe, parasite or virus in culture; conditions: Bacteroides fragilis; clinical gastrointestinal isolates, n=54
[19] = system: Enterococcus sp.; test: MIC, clinical isolates (Table 3)
From the text: (§2) Compound I was additionally tested against anaerobic clinical isolates and against aerobic bacteria. […] The compound was also active against clinical strains of Staphylococcus sp. and Enterococcus sp.

[20] = system: Staphylococcus sp.; test: MIC, clinical isolates (Table 3)
From the text: as §2

[21] = system: Streptococcus sp.; test: MIC, clinical isolates (Table 3); conditions: n=10
From the text: as §2

[22] = system: Propionibacterium sp.; test: MIC, clinical isolates (Table 3); conditions: n=16
From the text: as §2

[23] = system: Prevotella sp.; test: MIC, clinical isolates (Table 3); conditions: n=35
From the text: as §2

[24] = system: Lactobacillus sp.; test: MIC, clinical isolates (Table 3); conditions: n=8, in µg/mL
From the text: as §2

[25] = system: Pseudomonas sp.; test: MIC, clinical isolates (Table 3); conditions: n=15
From the text: as §2

[26] = system: Eubacterium sp.; test: MIC, clinical isolates (Table 3); conditions: n=26
From the text: as §2

[27] = system: Bacteroides fragilis; test: MIC, clinical isolates (Table 3); conditions: n=69
From the text: as §2

[28] = system: Enterobacteiaceae; test: MIC, clinical isolates (Table 3); conditions: n=28
From the text: as §2

[29] = system: C. difficile, C. perfringens and C. sordellii; test: organism not typed
[30] = system: C. glycolicum; test: microbe, parasite or virus in culture; conditions: clinical isolates, n=9
[31] = system: C. innocuum; test: microbe, parasite or virus in culture; conditions: [Clostridium] innocuum; clinical isolates, n=9
[32] = system: C. bolteae; test: microbe, parasite or virus in culture; conditions: Enterocloster bolteae; clinical isolates, n=6
[33] = system: Enterococcus sp.; test: microbe, parasite or virus in culture; conditions: clinical gastrointestinal isolates, n=22
[34] = system: C. difficile; test: microbe, parasite or virus in culture; conditions: clinical isolates, n=23
[35] = system: Other anaerobic Gram negative rods; test: organism not typed; conditions: clinical gastrointestinal isolates, n=51
[36] = system: Klebsiella sp.; test: microbe, parasite or virus in culture; conditions: clinical gastrointestinal isolates, n=10

CCc1c(Cl)c(O)c(Cl)c(O)c1C(=O)O[C@H]1[C@H](O)[C@H](OC)[C@H](OC/C2=C\C=C\C[C@H](O)/C(C)=C/[C@H](CC)C(O[C@@H]3OC(C)(C)[C@@H](OC(=O)C(C)C)[C@H](O)[C@@H]3O)/C(C)=C/C(C)=C/C[C@@H](C(C)O)OC2=O)O[C@@H]1C (stereo partly drawn) [Compound I]
Range (MIC) [1]: 8-64 | Range (MIC) ([2]; ATCC laboratory strains, n=4): 4 µg/mL | activity (in words) ([2]; laboratory strains, including VRE): moderate activity | Range (MIC) [3]: 1 µg/mL | Range (MIC) ([4]; ATCC laboratory strains, n=4): ≦0.125 | activity (in words) ([4]; laboratory strains): excellent activity | Range (MIC) [5]: > 32 µg/mL | Range (MIC) [6]: 16-32 | Range (MIC) [7]: > 32 µg/mL | Range (MIC) [8]: ≦0.06-1 | Range (MIC) [9]: > 32 µg/mL | Range (MIC) [10]: > 64 µg/mL | Range (MIC) ([11]; ATCC laboratory strains, n=4): ≦0.015-0.0625 | activity (in words) ([11]; laboratory strains): excellent activity | Range (MIC) [12]: > 32 µg/mL | Range (MIC) ([13]; ATCC laboratory strains, n=6, in µg/mL): 1-16 | activity (in words) ([13]; laboratory strains, including MRSA): moderate activity | MIC50 [14]: > 256 µg/mL | MIC90 [14]: > 256 µg/mL | MIC50 ([15]; Streptococcus): 32 µg/mL (≈ 30.2 µM) | MIC90 ([15]; Streptococcus): 128 µg/mL (≈ 121 µM) | Range (MIC) [15]: 16 to 128 µg/mL | MIC50 [16]: > 256 µg/mL | MIC90 [16]: > 256 µg/mL | Range (MIC) [16]: >256 µg/mL | MIC50 ([17]; Proteus mirabilis): > 256 µg/mL | MIC90 ([17]; Proteus mirabilis): > 256 µg/mL | Range (MIC) [17]: >256 µg/mL | MIC50 [18]: 512 µg/mL (≈ 484 µM) | MIC90 [18]: > 1020 µg/mL | MIC50 ([19]; Enterococcus, clinical isolates, n=8): 4 µg/mL (≈ 3.78 µM) | Range (MIC) ([19]; clinical isolates, n=8, in µg/mL): 1-8 | activity (in words) ([19]; clinical strains): active | MIC50 ([20]; Staphylococcus, clinical isolates, n=10): 2 µg/mL (≈ 1.89 µM) | Range (MIC) ([20]; clinical isolates, n=10, in µg/mL): 1-8 | activity (in words) ([20]; clinical strains): active | MIC50 [21]: 16 µg/mL (≈ 15.1 µM) | MIC50 [22]: 4 µg/mL (≈ 3.78 µM) | MIC50 [23]: ≥ 128 µg/mL | Range (MIC) [24]: 8-32 | MIC50 ([25]; Pseudomonas): > 64 µg/mL | Range (MIC) [25]: > 64 µg/mL | MIC50 [26]: 32 µg/mL (≈ 30.2 µM) | MIC50 ([27]; Bacteroides fragilis): ≥ 128 µg/mL | Range (MIC) [27]: ≧128^ | MIC50 [28]: > 64 µg/mL | Range (MIC) [28]: > 64 µg/mL | MIC90 [29]: 0.062 to 0.25 µg/mL (≈ 0.0586 to 0.236 µM) | MIC50 ([30]; Terrisporobacter glycolicus): 0.062 µg/mL (≈ 0.0586 µM) | MIC90 ([30]; Terrisporobacter glycolicus): 1 µg/mL (≈ 0.945 µM) | Range (MIC) [30]: 0.062 to 1 µg/mL | MIC50 [31]: > 1020 µg/mL | MIC90 [31]: > 1020 µg/mL | MIC50 [32]: > 1020 µg/mL | MIC90 [32]: > 1020 µg/mL | MIC50 ([33]; Enterococcus): 8 µg/mL (≈ 7.56 µM) | MIC90 ([33]; Enterococcus): 8 µg/mL (≈ 7.56 µM) | Range (MIC) [33]: 0.5-16^ μg/mL | MIC50 ([34]; Clostridioides difficile): 0.12 µg/mL (≈ 0.113 µM) | MIC90 ([34]; Clostridioides difficile): 0.25 µg/mL (≈ 0.236 µM) | Range (MIC) [34]: 0.062 to 2 µg/mL | MIC50 [35]: 1020 µg/mL (≈ 968 µM) | MIC90 [35]: > 1020 µg/mL | MIC50 ([36]; Klebsiella): > 256 µg/mL | MIC90 ([36]; Klebsiella): > 256 µg/mL | Range (MIC) [36]: >256 µg/mL

From patent US20070173462A1, “Treatment of diseases associated with the use of antibiotics” (Optimer Pharmaceuticals, Inc., priority 2004, published 2007)
